# Measurements from patent US20240158446A1, “CYCLIC COMPOUND HAVING SELECTIVE INHIBITORY ACTION ON KRAS OVER HRAS AND NRAS” (CHUGAI SEIYAKU KABUSHIKI KAISHA, priority 2021, published 2024).
# Where a SMILES comes first, the peptide text is derived from it. Bridges are numbered along the chain shown (N, C = ends). [ ]: non-standard residue; d: D form. The star is where a group is joined. hPhe(3-Cl-4-CF3) = N[C@@H](CCc1ccc(C(F)(F)F)c(Cl)c1)C(=O)O; NPrPhe(4-CF3) = CCCN[C@@H](Cc1ccc(C(F)(F)F)cc1)C(=O)O; NMeGly(cPent) = CN[C@H](C(=O)O)C1CCCC1; NMeD = CN[C@@H](CC(=O)O)C(=O)O; NMeL = CN[C@@H](CC(C)C)C(=O)O; NMeS = CN[C@@H](CO)C(=O)O; Morpholide = C1CN(*)CCO1; Ac5c = NC1(C(=O)O)CCCC1; Sar = CNCC(=O)O
# How the values were obtained:
# [1] = tested on: human lung cancer strain NCI-H441; assay: cells; details: NCI-H441, 96 h, read-out: NCI-H441 IC50 (nM), NCI-H441 cell proliferation, 4 days, CellTiter-Glo;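 also: cell proliferation inhibition after four days measured by CellTiter-Glo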
# [2] = biological target: GDP-bound KRAS wild-type protein (Homo sapiens, UniProt P01116); assay: Binding to KRAS by surface plasmon resonance (SPR), Single Cycle Kinetics; details: SPR, Single Cycle Kinetics, GDP-bound KRAS wild-type protein; read-out: KRAS KD
# Chain of GDP-bound KRAS wild-type protein (P01116 whole entry): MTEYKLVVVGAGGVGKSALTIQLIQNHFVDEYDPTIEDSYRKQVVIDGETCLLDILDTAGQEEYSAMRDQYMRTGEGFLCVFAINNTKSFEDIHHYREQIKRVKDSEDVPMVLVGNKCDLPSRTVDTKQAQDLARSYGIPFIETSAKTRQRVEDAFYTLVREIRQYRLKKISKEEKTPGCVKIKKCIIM
# [3] = biological target: GDP-bound HRAS wild-type protein (Homo sapiens, UniProt P01112); assay: Binding to HRAS by surface plasmon resonance (SPR), Single Cycle Kinetics; details: ratio of KD for GDP-bound HRAS wild-type protein to KD for KRAS, SPR
# Chain of GDP-bound HRAS wild-type protein (P01112 whole entry): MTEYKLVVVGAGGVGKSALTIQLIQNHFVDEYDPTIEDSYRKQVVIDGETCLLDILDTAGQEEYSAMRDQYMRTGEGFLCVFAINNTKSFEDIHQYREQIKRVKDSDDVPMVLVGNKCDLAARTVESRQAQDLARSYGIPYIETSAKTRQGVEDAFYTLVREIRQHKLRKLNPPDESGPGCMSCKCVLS
# [4] = biological target: GDP-bound NRAS wild-type protein (Homo sapiens, UniProt P01111); assay: Binding to NRAS by surface plasmon resonance (SPR), Single Cycle Kinetics; details: ratio of KD for GDP-bound NRAS wild-type protein to KD for KRAS, SPR
# Chain of GDP-bound NRAS wild-type protein (P01111 whole entry): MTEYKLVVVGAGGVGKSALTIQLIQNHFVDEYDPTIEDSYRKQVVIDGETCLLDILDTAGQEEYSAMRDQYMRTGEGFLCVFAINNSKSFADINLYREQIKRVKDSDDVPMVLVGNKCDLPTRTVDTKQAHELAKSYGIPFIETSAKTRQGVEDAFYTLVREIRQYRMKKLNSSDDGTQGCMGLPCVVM
Compound,IC50 [1] [nM],Kd [2] [nM],HRAS/KRAS (KD ratio) [3],NRAS/KRAS (KD ratio) [4]
CCCN1C(=O)CN(C)C(=O)CN(C)C(=O)[C@H]([C@@H](C)CC)NC(=O)[C@H](CC(C)C)N(C)C(=O)C[C@@H](C(=O)N2CCOCC2)N(C)C(=O)[C@H](C2CCCC2)N(C)C(=O)C2(CCCC2)NC(=O)[C@H](COC)N(C)C(=O)[C@H](CCc2ccc(C(F)(F)F)c(Cl)c2)NC(=O)CN(C)C(=O)[C@@H]1Cc1ccc(C(F)(F)F)cc1 [PP1920] ([NMeL]I[Sar][Sar][NPrPhe(4-CF3)][Sar][hPhe(3-Cl-4-CF3)][NMeS](Me)[Ac5c][NMeGly(cPent)][NMeD]-Morpholide; lactam N-11),32.4,0.31,C (A compound having a KD ratio of 0.1 or more and less than 3 is denoted as C),B (a compound having 3 or more and less than 10 is denoted as B)
CC[C@H](C)[C@@H]1NC(=O)[C@H](C(C)C)N(C)C(=O)C[C@@H](C(=O)N(C)CC)N(C)C(=O)[C@H](C2CCCC2)N(C)C(=O)C2(CC(C)(C)C2)NC(=O)[C@@H]2C[C@H](C)CN2C(=O)[C@H](CCc2cc(F)c(C(F)(F)F)c(F)c2)NC(=O)CN(C)C(=O)[C@H](Cc2ccc(C(F)(F)F)cc2)N2CC/C=C\C[C@@H](C2=O)N(C)C(=O)CN(C)C1=O [PP1976],92,0.37,A (a compound having 10 or more and less than 20 is denoted as A),AA (a compound having 20 or more is denoted as AA)

# These reach a lower IC50 [1]. Values come first.
IC50 [1] [nM],Kd [2] [nM],Compound,HRAS/KRAS (KD ratio) [3],NRAS/KRAS (KD ratio) [4]
4.3,0.1,CCCC[C@H]1C(=O)N[C@@H]([C@@H](C)CC)C(=O)N(C)CC(=O)N(C)[C@H]2C/C=C\CCN(C2=O)[C@@H](Cc2ccc(C(F)(F)F)cc2)C(=O)N(C)CC(=O)N[C@@H](CCc2cc(F)c(C(F)(F)F)c(F)c2)C(=O)N2CC(F)(F)C[C@H]2C(=O)NC2(CC(C)(C)C2)C(=O)N(C)[C@@H](C2CCCC2)C(=O)N(C)[C@H](C(=O)N(C)C)CC(=O)N1C [PP1714],A (a compound having 10 or more and less than 20 is denoted as A),A (a compound having 10 or more and less than 20 is denoted as A)
9.7,0.23,CCC[C@H]1C(=O)N[C@@H]([C@@H](C)CC)C(=O)N2CC[C@H]2C(=O)N(C)[C@H]2C/C=C\CCN(C2=O)[C@@H](Cc2ccc(C(F)(F)F)cc2)C(=O)N(C)CC(=O)N[C@@H](CCc2cc(F)c(C(F)(F)F)c(F)c2)C(=O)N2C[C@H](OCC)C[C@H]2C(=O)NC2(CC(C)(C)C2)C(=O)N(C)[C@@H](C2CCCC2)C(=O)N(C)[C@H](C(=O)N(C)C)CC(=O)N1C [PP1925],A (a compound having 10 or more and less than 20 is denoted as A),A (a compound having 10 or more and less than 20 is denoted as A)
6,0.19,CCC[C@H]1C(=O)N[C@@H]([C@@H](C)CC)C(=O)N(C)CC(=O)N(C)[C@H]2C/C=C\CCN(C2=O)[C@@H](Cc2ccc(C(F)(F)F)cc2)C(=O)N(C)CC(=O)N[C@@H](CCc2cc(F)c(Cl)c(F)c2)C(=O)N2C[C@H](OCC)C[C@H]2C(=O)NC2(CC(C)(C)C2)C(=O)N(C)[C@@H](C2CCCC2)C(=O)N(C)[C@H](C(=O)N(C)C)CC(=O)N1C [PP1758],A (a compound having 10 or more and less than 20 is denoted as A),AA (a compound having 20 or more is denoted as AA)
4.9,0.32,CCO[C@@H]1C[C@H]2C(=O)NC3(CC(C)(C)C3)C(=O)N(C)[C@@H](C3CCCC3)C(=O)N(CC)[C@H](C(=O)N(C)C)CC(=O)N(C)[C@@H](CC)C(=O)N[C@@H]([C@@H](C)CC)C(=O)N(C)CC(=O)N(C)[C@H]3C/C=C\CCN(C3=O)[C@@H](Cc3ccc(C(F)(F)F)cc3)C(=O)N(C)CC(=O)N[C@@H](CCc3cc(F)c(C(F)(F)F)c(F)c3)C(=O)N2C1 [PP1768],A (a compound having 10 or more and less than 20 is denoted as A),A (a compound having 10 or more and less than 20 is denoted as A)
